How the values were obtained:
Assay in all cases: Greenhouse herbicidal post-emergence test
AMARE = assay type: in vivo, velvet leaf; settings: application rate 31.3 g/ha
Text: (§1) The culture containers used were plastic pots containing loamy sand with approximately 3.0% of humus as the substrate. The seeds of the test plants were sown separately for each species. For the post-emergence treatment, the test plants were first grown to a height of 3 to 15 cm, depending on the plant form, and only then treated with the active compounds which had been suspended or emulsified in water. For this purpose, the test plants were either sown directly and grown in the same containers, or they were first grown separately as seedlings and transplanted into the test containers a few days prior to treatment. The application rate for the post-emergence treatment was 31.3 g of a.s./ha. Depending on the species, the plants were kept at 10-25° C. or 20-35° C. The test period extended over 2 to 4 weeks. During this time, the plants were tended, and their response to the individual treatments was evaluated. The evaluation was carried out using a scale from 0 to 100. 100 means no emergence of the plants, or complete destruction of at least the above-ground parts, and 0 means no damage, or normal course of growth. The plants used in the greenhouse experiments were composed of the following species: [table]

CHEAL = assay type: in vivo, lamb's-quarters; settings: application rate 31.3 g/ha
Text: as §1

BRAPL = assay type: in vivo, marmalade grass
Text: as §1, with “The application rate for the post-emergence treatment was 31.3 g of a.s./ha.” left out

SETFA = assay type: in vivo, giant foxtail
Text: as §1, with “The application rate for the post-emergence treatment was 31.3 g of a.s./ha.” left out

## Cn1nc(-c2c(F)cc(Cl)c(N)c2Br)c(Cl)c1OC(F)F [IVa.1, 2-bromo-4-fluoro-6-chloro-3-(4-chloro-5-difluoromethoxy-1-methyl-1H-pyrazol-3-yl)aniline]
AMARE
  herbicidal post-emergence activity against AMARE: very good
CHEAL
  herbicidal post-emergence activity against CHEAL: very good
BRAPL; application rate 15.6 g/ha
  herbicidal post-emergence activity against BRAPL: very good
BRAPL; application rate 31.3 g/ha
  herbicidal post-emergence activity against BRAPL: very good
SETFA; application rate 15.6 g/ha
  herbicidal post-emergence activity against SETFA: very good to good
SETFA; application rate 31.3 g/ha
  herbicidal post-emergence activity against SETFA: very good

Source: patent US6888003B2, “Method for producing 7-(pyrazole-3-yl) benzoxazoles” (BASF Aktiengesellschaft, priority 2000, dated 2005)
